According to US20240124545A1, “COMPOSITIONS AND METHODS RELATING TO THE TREATMENT OF DISEASES” (ILC THERAPEUTICS LIMITED, priority 2021, published 2024):
Values joined by “and” are separate entries in the source; they are usually repeats but may differ in a detail not shown here. Equal entries are not always repeated. Where two headings read alike, the source gives them in different places.

How the values were obtained:
[1] = system: HIV-1 LAI; assay: HIV-1 LAI infectivity assay with β-galactosidase readout (Experiment 5); assay type: cell-based, human immunodeficiency virus type 1 (HIV-1) LAI strain; conditions: for HIV infection blocked by control antiviral: 0.5 μM
[2] = system: HIV-1 LAI; conditions: for HIV Infectivity in HeLa CD4 βgal cells (β-gal units) - antiviral control / HIV Infectivity in HeLa CD4 βgal cells, percentage of vehicle - antiviral control: single data point
[3] = system: HeLa-CD4-βgal cells
[4] = in vitro; conditions: human, uninfected HeLa-CD4-βgal cells
[5] = in vitro; conditions: human, uninfected HeLa-CD4-βgal cells; remark: listed apart in the source
[6] = XTT viability (cytotoxicity) assay, uninfected HeLa-CD4-βgal cells (Experiment 4); conditions: human, uninfected HeLa-CD4-βgal cells

With enfuvirtide the “block of HIV infection by control inhibitor” value [1] was “completely blocked HIV infection”, the “HIV infection blocked by control antiviral” value [1] was about 100% and the “HIV infection blocked by control antiviral” value ([1]; listed as T20) was “over 99%”. The “HIV-1 Infectivity in HeLa-CD4-βgal cells (% vehicle)” value ([1]; control antiviral 0.5 μM, duplicate data points) was 0.0 % vehicle, the “HIV Infectivity in HeLa CD4 βgal cells (β-galactosidase units)” value ([1]; control antiviral 0.5 μM, individual values) was 3,953 RLU and 3,657 RLU and the “HIV Infectivity in HeLa CD4 βgal cells (β-galactosidase units)” value [2] was 3,399 RLU and 4,452 RLU. For the same substance, the “HIV Infectivity in HeLa-CD4-βgal cells (% vehicle)” value [2] was 0.1 % vehicle, the “HIV Infectivity in HeLa CD4 βgal cells (β-gal units) - antiviral control” value ([2]; 0.00005 μM) was 1,159,781 RLU and the “HIV Infectivity in HeLa CD4 βgal cells, percentage of vehicle - antiviral control” value ([2]; 0.00005 μM) was 102.2 % vehicle. The “HIV Infectivity in HeLa CD4 βgal cells (β-gal units) - antiviral control” value ([2]; 0.0003 μM) was 1,083,305 RLU, the “HIV Infectivity in HeLa CD4 βgal cells, percentage of vehicle - antiviral control” value ([2]; 0.0003 μM) was 95.4 % vehicle and the “HIV Infectivity in HeLa CD4 βgal cells (β-gal units) - antiviral control” value ([2]; 0.001 μM) was 1,061,348 RLU. The “HIV Infectivity in HeLa CD4 βgal cells, percentage of vehicle - antiviral control” value ([2]; 0.001 μM) was 93.5 % vehicle, the “HIV Infectivity in HeLa CD4 βgal cells (β-gal units) - antiviral control” value ([2]; 0.006 μM) was 518,832 RLU and the “HIV Infectivity in HeLa CD4 βgal cells, percentage of vehicle - antiviral control” value ([2]; 0.006 μM) was 45.5 % vehicle. For the same substance, the “HIV Infectivity in HeLa CD4 βgal cells (β-gal units) - antiviral control” value ([2]; 0.03 μM) was 73,650 RLU, the “HIV Infectivity in HeLa CD4 βgal cells, percentage of vehicle - antiviral control” value ([2]; 0.03 μM) was 6.2 % vehicle and the “HIV Infectivity in HeLa CD4 βgal cells (β-gal units) - antiviral control” value ([2]; 0.2 μM) was 19,736 RLU. The “HIV Infectivity in HeLa CD4 βgal cells, percentage of vehicle - antiviral control” value ([2]; 0.2 μM) was 1.5 % vehicle, the “HIV infection blocked by control antivirals” value ([2]; 0.5 μM) was about 100% and the “HIV Infectivity in HeLa CD4 βgal cells (β-gal units) - antiviral control” value ([2]; 0.8 μM) was 2,604 RLU. For the same substance, the “HIV Infectivity in HeLa CD4 βgal cells, percentage of vehicle - antiviral control” value ([2]; 0.8 μM) was 0.0 % vehicle, the “HIV Infectivity in HeLa CD4 βgal cells (β-gal units) - antiviral control” value ([2]; 4.0 μM) was 1,950 RLU and the “HIV Infectivity in HeLa CD4 βgal cells, percentage of vehicle - antiviral control” value ([2]; 4.0 μM) was −0.1 % vehicle. For the same substance, the “HIV Infectivity in HeLa CD4 βgal cells (β-gal units) - antiviral control” value ([2]; 20 μM) was 1,538 RLU, the “HIV Infectivity in HeLa CD4 βgal cells, percentage of vehicle - antiviral control” value ([2]; 20 μM) was −0.1 % vehicle and the “loss of cell viability with control inhibitor” value [3] was “minimal loss of cell viability”. It also gave a viability at 48 h, 5e-05 µM [4] of 87.9%, a viability at 48 h, 0.0003 µM [4] of 87.4% and a viability at 48 h, 0.001 µM [4] of 81.4%. For the same substance, the viability at 48 h, 0.006 µM [4] was 83.7%, the viability at 48 h, 0.03 µM [4] was 79.6% and the viability at 48 h, 0.2 µM [4] was 82.5%. For the same substance, the viability at 48 h, 0.8 µM [4] was 83.8%, the viability at 48 h, 4 µM [4] was 74.4% and the viability at 48 h, 20 µM [4] was 57.1%. The viability at 48 h, 0.5 µM [5] was 93.1 ± 2.3% and the CC50 at 48 h [6] was over 20 µM.
